Structures are written as SMILES. Entries after “also recorded” stand apart in the source; their conditions may differ. Read-outs that look alike come from different tables or passages of the source.

One data set deals with plasma estradiol. Description: Plasma estradiol concentration, baseline vs cycle 3 day 15. Format: in vivo, patients.
The subject of data set [1] is HR+/HER2− advanced breast cancer. Format: in vivo, patients. As to conditions: for Median PFS: updated analysis.
Data set [2] deals with patients with HR+/HER2− advanced breast cancer. The experiment in a line: MONALEESA-7 adverse events. Format: in vivo. As to conditions: adverse event of special interest.
In data set [3] the test system is HR+/HER2− advanced breast cancer. The following applies: cited from earlier work.
The nature of data set [4]: Steady-state plasma pharmacokinetics. In kind it is in vivo, patients.
Where [5] appears, read: patients less than 40 years of age.

`CN(C)C(=O)c1cc2cnc(Nc3ccc(N4CCNCC4)cn3)nc2n1C1CCCC1` [Ribociclib, ribociclib]: the “Patients with estradiol below the minimum detectable limit (0.5 pg/mL)” value in the data set with plasma estradiol (86 of 90 patients) was 96%. Further, the “Mean percentage decrease in plasma estradiol concentration compared with baseline” value with plasma estradiol (patients who received an NSAI) amounted to 89%. Also, the “mOS (median overall survival)” value in data set [1] (Age: <40 years) stood at 51.3 months. Also, the “mOS (median overall survival)” value in data set [1] (Age: ≥40 years) is reported as 58.8 months. Also, in data set [1] (All patients), the “Increase in survival over the MONALEESA-7 placebo arm” value came out at 22%, the “Kaplan–Meier estimated OS at 48 months (survival rate at 4 years)” value was 60%, the “Median chemotherapy-free survival (CFS)” value turned out to be 42.4 months and the “PFS2 HR (95% CI) vs placebo” value is given as 0.68. Also, in data set [1] (All patients), the “PFS2 Median” value is given as 44.2 mo, the “Patients who had died at data cut-off” value is on record as 42%, the “Patients who received chemotherapy as a subsequent therapy at any time” value worked out at 43% and the “Patients with disease progression on subsequent therapy or death (PFS2 events)” value came to 53%. Further, in data set [1] (All patients), the “Patients with receipt of chemotherapy or death” value was 57% and the “Survival rate at 54 months” value was 53%. Further, in data set [1] (All patients, 58.7 vs 48.0 months), the “Improvement in OS over ET alone” value was 10.7 months. For the same molecule, the “mOS (median overall survival)” value in data set [1] (All patients, median follow-up 53.5 months) was 58.7 months. Also, in data set [1] (Chemotherapy (metastatic): Yes), the “mOS (median overall survival)” value stood at 47.2 months. For the same molecule, the “mOS (median overall survival)” value in data set [1] (Disease-free interval: De novo) is on record as “not reached”. Also, the “mOS (median overall survival)” value in data set [1] (Endocrine combination partner: NSAI and goserelin) was 58.7 months. In addition, in data set [1] (Endocrine combination partner: Tamoxifen and goserelin), the “mOS (median overall survival)” value is given as “not estimable”. Further, the Patients who died in data set [1] (Patients receiving an NSAI) was determined as 43%. Also, the Patients who died in data set [1] (Patients receiving tamoxifen) is 39%. Further, the “Delay in chemotherapy vs placebo, without censoring” value in data set [1] (difference in median chemotherapy-free survival) was determined as 16.0 month. In addition, the “Delay in chemotherapy vs placebo, censoring for death” value in data set [1] (difference in median time to first chemotherapy) is given as 14.1 month. Moreover, the “Median time to first chemotherapy (TTC)” value in data set [1] (in vivo) is listed as 50.9 months. The “Duration of first subsequent antineoplastic therapy after discontinuation of study treatment” value in data set [1] (overall) came out at 7.5 months. Further, in data set [1] (setting [5]), the “Reduction in the risk of death” value is recorded as 35% and the “Median PFS” value is listed as 29.7 months. Moreover, the “Median PFS” value in data set [1] (patients ≥40 years of age) is on record as 26.4 months. In data set [2], the “Hepatobiliary toxicity, grade 3 or 4” value was 12%; the “Neutropenia, grade 3 or 4” value is reported as 65%; the “Prolonged QT interval, grade 3 or 4” value amounted to 2%. Also, in data set [3] (median follow-up 34.6 months), the “Median OS, prespecified second interim (final) analysis” value is recorded as “not reached”. In addition, the “Median PFS (primary endpoint)” value in data set [3] (primary analysis) is given as 23.8 months. Also, the “Drug–drug interaction between ribociclib and NSAI partner” value in data set [4] (in vivo) is reported as “No drug–drug interactions; also recorded: no apparent drug–drug interaction”.
For `CC/C(=C(\c1ccccc1)c1ccc(OCCN(C)C)cc1)c1ccccc1` [Tamoxifen, tamoxifen], the “Exposure with ribociclib versus placebo” value in data set [4] (tamoxifen 20 mg) was “approximately 2 times”.

The record behind these values is paper PMC9377723 (Clinical Cancer Research, 2021).
